# From US9073874B2, “Cyclic N,N′-diarylthioureas and N,N′-diarylureas-androgen receptor antagonists, anticancer agent, method for preparation and use thereof” (priority 2010, dated 2015)
# What was measured:
# NOP (ORL1) (h) = NOP (ORL1) (h) (Homo sapiens, UniProt P41146); assay: competitive radioligand binding assay, NOP (ORL1) (h) (agonist radioligand)
# PCP = assay: competitive radioligand binding assay, PCP (antagonist radioligand); conditions: 10 μM
# [1] = tested on: T1, GABA (non-selective) receptors; type: binding
# T1 construct: other: 10 μM; GABA (non-selective) (agonist radioligand); activity towards GABA (non-selective) receptors (in words)
# BZD (central) = assay: competitive radioligand binding assay, BZD (central) (agonist radioligand); conditions: 10 μM
# [2] = tested on: Ca2+channel (L, verapamil site) (phenylalkylamine); assay: competitive radioligand binding assay, Ca2+channel (L, verapamil site) (phenylalkylamine) (antagonist radioligand); conditions: 10 μM
# D2S (h) = D2S (h) (Homo sapiens, UniProt P14416); assay: competitive radioligand binding assay, D2S (h) (antagonist radioligand)
# B2 (h) = B2 (h) (Homo sapiens, UniProt P30411); assay: competitive radioligand binding assay, B2 (h) (agonist radioligand)
# D3 (h) = D3 (h) (Homo sapiens, UniProt P35462); assay: competitive radioligand binding assay, D3 (h) (antagonist radioligand)
# M (non0selective) = assay: competitive radioligand binding assay, M (non0selective) (antagonist radioligand); conditions: 10 μM
# I2 = assay: competitive radioligand binding assay, I2 (antagonist radioligand); conditions: 10 μM
# KV channel = assay: competitive radioligand binding assay, KV channel (antagonist radioligand); conditions: 10 μM
# H1 (h) = H1 (h) (Homo sapiens, UniProt P35367); assay: competitive radioligand binding assay, H1 (h) (antagonist radioligand)
# ETA (h) = ETA (h) (Homo sapiens, UniProt P25101); assay: competitive radioligand binding assay, ETA (h) (agonist radioligand)
# ER (non-selective) (h) = assay: competitive radioligand binding assay, ER (non-selective) (h) (agonist radioligand); set-up: species or system human; conditions: 10 μM
# [3] = Distribution in plasma, brain and prostate after single IV administration in rats; type: in vivo; conditions: single IV 2 mg/kg
# MC4 (h) = MC4 (h) (Homo sapiens, UniProt P32245); assay: competitive radioligand binding assay, MC4 (h) (agonist radioligand)
# Y (non-selective) = assay: competitive radioligand binding assay, Y (non-selective) (agonist radioligand); conditions: 10 μM
# [4] = tested on: Ca2+ channel (L, diltiazem site) (benzothiazepines); assay: competitive radioligand binding assay, Ca2+ channel (L, diltiazem site) (benzothiazepines) (antagonist radioligand); conditions: 10 μM
# AT2 (h) = AT2 (h) (Homo sapiens, UniProt P50052); assay: competitive radioligand binding assay, AT2 (h) (agonist radioligand)
# P2X = assay: competitive radioligand binding assay, P2X (agonist radioligand); conditions: 10 μM
# CCK1 (CCKA) (h) = CCK1 (CCKA) (h) (Homo sapiens, UniProt P32238); assay: competitive radioligand binding assay, CCK1 (CCKA) (h) (agonist radioligand)
# N neuronal α4β2 (h) = N neuronal α4β2 (h) (Homo sapiens, UniProt P17787+P43681); assay: competitive radioligand binding assay, N neuronal α4β2 (h) (agonist radioligand)
# MT1 (ML1A) (h) = MT1 (ML1A) (h) (Homo sapiens, UniProt P48039); assay: competitive radioligand binding assay, MT1 (ML1A) (h) (agonist radioligand)
# V1 a (h) = V1 a (h) (Homo sapiens, UniProt P37288); assay: competitive radioligand binding assay, V1 a (h) (agonist radioligand)
# KATP channel = assay: competitive radioligand binding assay, KATP channel (antagonist radioligand); conditions: 10 μM
# AT1 (h) = AT1 (h) (Homo sapiens, UniProt P30556); assay: competitive radioligand binding assay, AT1 (h) (antagonist radioligand)
# [5] = tested on: Ca2+ channel (L, dihydropyridine site); assay: competitive radioligand binding assay, Ca2+ channel (L, dihydropyridine site) (antagonist radioligand); conditions: 10 μM
# NMDA = assay: competitive radioligand binding assay, NMDA (antagonist radioligand); conditions: 10 μM
# GR (h) = GR (h) (Homo sapiens, UniProt P04150); assay: competitive radioligand binding assay, GR (h) (agonist radioligand)
# LnCAP cells = assay: Inhibition of DHT-stimulated proliferation of LnCAP cells; type: cell-based, human
# Procedure: The expression of PSA was measured in the culture medium 24 hours thereafter (FIG. 1). […] The LnCAP cells were cultured for a further 5 days and the number of viable cells was then calculated.
# FIG. 2. Inhibition of DHT-stimulated proliferation of LnCAP cells.
# D4.4 (h) = D4.4 (h) (Homo sapiens, UniProt P21917); assay: competitive radioligand binding assay, D4.4 (h) (antagonist radioligand)
# β1 (h) = β1 (h) (Homo sapiens, UniProt P08588); assay: competitive radioligand binding assay, β1 (h) (agonist radioligand)
# GABA transporter = assay: competitive radioligand binding assay, GABA transporter (antagonist radioligand); conditions: 10 μM
# TRH1 (h) = TRH1 (h) (Homo sapiens, UniProt P34981); assay: competitive radioligand binding assay, TRH1 (h) (agonist radioligand)
# AR (h) = assay: competitive radioligand binding assay, AR (h) (agonist radioligand); set-up: species or system human; conditions: 10 μM
# D1 (h) = D1 (h) (Homo sapiens, UniProt P21728); assay: competitive radioligand binding assay, D1 (h) (antagonist radioligand)
# CRF1 (h) = CRF1 (h) (Homo sapiens, UniProt P34998); assay: competitive radioligand binding assay, CRF1 (h) (agonist radioligand)
# kainate = assay: competitive radioligand binding assay, kainate (agonist radioligand); conditions: 10 μM
# NK3 (h) = NK3 (h) (Homo sapiens, UniProt P29371); assay: competitive radioligand binding assay, NK3 (h) (antagonist radioligand)
# NK2 (h) = NK2 (h) (Homo sapiens, UniProt P21452); assay: competitive radioligand binding assay, NK2 (h) (agonist radioligand)
# Na+ channel (site 2) = assay: competitive radioligand binding assay, Na+ channel (site 2) (antagonist radioligand); conditions: 10 μM
smiles,measurement,setting,value
"CNC(=O)c1ccc(N2C(=S)N(c3ccc(C#N)c(C(F)(F)F)c3)C(=O)[C@]23CCOC3)cc1F [(R)-1, 4-[(R)-3-(4-cyano-3-trifluoromethyl-phenyl)-4-oxo-2-thioxo-7-oxa-1,3-diaza-spiro[4.4]non-1-yl]-2-fluoro-N-methyl-benzamide]",inhibition at 10 µM,NOP (ORL1) (h),-1.7%
same,% Inhibition,PCP,0.5%
same,% Inhibition,"[1]; 10 μM, GABA (non-selective) (agonist radioligand)",7.1%
same,activity towards GABA (non-selective) receptors (in words),"[1]; Table 1, Target 24",practically inactive
same,% Inhibition,BZD (central),−16.6%
same,% Inhibition,[2],4.0%
same,inhibition at 10 µM,D2S (h),-8.1%
same,inhibition at 10 µM,B2 (h),-5.2%
same,inhibition at 10 µM,D3 (h),-4.8%
same,% Inhibition,M (non0selective),−8.9%
same,% Inhibition,I2,10.1%
same,% Inhibition,KV channel,−10.1%
same,inhibition at 10 µM,H1 (h),0.7%
same,inhibition at 10 µM,ETA (h),-2.5%
same,% Inhibition,ER (non-selective) (h),−7.6%
same,concentration at 30 min,"[3]; rat, plasma, 30 min, Mean ± SD, n = 3",746 ± 104 ng/mL
same,concentration at 120 min,"[3]; rat, plasma, 120 min, Mean ± SD, n = 3",522 ± 57 ng/mL
same,Brain/Plasma,[3]; 30 min,0.19 ± 0.02
same,Prostate/Plasma,[3]; 30 min,1.55 ± 0.08
same,Brain,"[3]; 30 min, Mean ± SD, n = 3",145 ± 22 ng/g
same,Plasma,"[3]; 30 min, Mean ± SD, n = 3",746 ± 104 ng/mL
same,Prostate,"[3]; 30 min, Mean ± SD, n = 3",1159 ± 164 ng/g
same,Brain/Plasma,[3]; 120 min,0.17 ± 0.35
same,Prostate/Plasma,[3]; 120 min,1.20 ± 0.36
same,Brain,"[3]; 120 min, Mean ± SD, n = 3",89 ± 10 ng/g
same,Plasma,"[3]; 120 min, Mean ± SD, n = 3",522 ± 57 ng/mL
same,Prostate,"[3]; 120 min, Mean ± SD, n = 3",625 ± 108 ng/g
same,inhibition at 10 µM,MC4 (h),-3.1%
same,% Inhibition,Y (non-selective),−16.4%
same,% Inhibition,[4],−23.6%
same,inhibition at 10 µM,AT2 (h),-6.2%
same,% Inhibition,P2X,28.0%
same,inhibition at 10 µM,CCK1 (CCKA) (h),10.6%
same,inhibition at 10 µM,N neuronal α4β2 (h),0.2%
same,inhibition at 10 µM,MT1 (ML1A) (h),-6.2%
same,inhibition at 10 µM,V1 a (h),12.3%
same,% Inhibition,KATP channel,−0.8%
same,inhibition at 10 µM,AT1 (h),0.5%
same,% Inhibition,[5],−2.5%
same,% Inhibition,NMDA,2.0%
same,inhibition at 10 µM,GR (h),29.4%
same,IC50,"LnCAP cells; Homo sapiens, LNCaP, 120 h, read-out: IC50, inhibition of DHT-induced cell proliferation",30 nM
same,fold more efficient than III in inhibiting DHT-induced cell proliferation,"LnCAP cells; LnCAP cells, versus III",around 8 fold
same,fold more efficient than Ia in inhibiting DHT-induced cell proliferation,"LnCAP cells; LnCAP cells, versus Ia",around 6 fold
same,inhibition at 10 µM,D4.4 (h),-4.7%
same,inhibition at 10 µM,β1 (h),1.8%
same,% Inhibition,GABA transporter,9.7%
same,inhibition at 10 µM,TRH1 (h),3.4%
same,% Inhibition,AR (h),96.3%
same,inhibition at 10 µM,D1 (h),-2.4%
same,inhibition at 10 µM,CRF1 (h),-0.1%
same,% Inhibition,kainate,13.1%
same,inhibition at 10 µM,NK3 (h),-4.5%
same,inhibition at 10 µM,NK2 (h),-8.7%
same,% Inhibition,Na+ channel (site 2),−11.6%
